The target of assay [1] is T1, 5-HT1A receptor (Sus scrofa, UniProt A0A4X1UTF5).
T1 construct: Swine hippocampus was homogenized in a 50 mM Tris-Hcl buffer; from tissue; host or cells: swine hippocampus, membrane fraction
T1 sequence (A0A4X1UTF5 1-422): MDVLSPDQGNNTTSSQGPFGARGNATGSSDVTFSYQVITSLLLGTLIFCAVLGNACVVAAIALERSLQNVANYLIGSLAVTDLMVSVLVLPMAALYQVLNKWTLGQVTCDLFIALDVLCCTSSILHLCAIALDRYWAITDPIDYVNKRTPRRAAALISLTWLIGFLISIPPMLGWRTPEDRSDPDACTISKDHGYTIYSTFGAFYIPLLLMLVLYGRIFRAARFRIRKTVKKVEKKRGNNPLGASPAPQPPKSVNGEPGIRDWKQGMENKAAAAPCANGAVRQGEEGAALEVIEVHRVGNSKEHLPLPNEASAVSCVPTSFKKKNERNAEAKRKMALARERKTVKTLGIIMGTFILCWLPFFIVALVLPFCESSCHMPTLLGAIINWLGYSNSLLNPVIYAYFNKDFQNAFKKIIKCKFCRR
Kind of assay: Affinity for serotonin 1A receptor: inhibition of [3H]MPPF binding in swine hippocampal membrane fraction. The settings on record: for IC50: [3H]MPPF 0.5 nM, swine hippocampal membrane, 37°C 30 min; for L/H ratio: low affinity IC50 divided by high affinity IC50, 1 or smaller = no intrinsic activity, 2 or greater = intrinsic activity. Summed up: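 Swine hippocampal membranes incubated 30 min at 37 °C with 0.5 nM [3H]MPPF and test compound in 50 mM Tris-HCl pH 7.4, 1% DMSO, with 10 mM MgCl2 (G-protein-coupled, high-affinity state) or 1 mM Gpp(NH)p (uncoupled, low-affinity state). Bound radioactivity measured by filtration and scintillation counting; nonspecific binding defined with 10 μM WAY-100,635. IC50 in each state; low/high IC50 ratio taken as an estimate of intrinsic activity.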

In assay [2] the test system is urinary reflex of Sprague-Dawley female rats. Kind of assay: Inhibitory action against accentuated urinary reflex of rat due to destruction of the superior colliculus (cystometrogram). The assay is classed as in vivo. The settings on record: iv, rat with superior colliculus lesion. The source says: (1) In the present test, Sprague-Dawley female rates (200-350 g) were used. The rats were subjected to median incision of the abdomen under anesthesia. Thereafter, a hole with a minor diameter was made on the head portion of the bladder, and a catheter used for measurement of an intravesical pressure was placed therein. A catheter used for administration of a test substance was placed in the femoral vein. These catheters were fixed at the occipital region of the rat through the subcutis. One day later, the urinary reflex of the rats was measured with a cystometrogram. Thereafter, the rats were fixed on a brain stereotaxis apparatus under anesthesia, and then subjected to median incision of the scalp. […] Thereafter, electric current was applied (65° C., 4 minutes), so as to damage the brain tissues. After completion of the operation, when the rat awakened from anesthesia, cystometrogram was conducted again to confirm the enhanced state of urinary reflex. A test substance was administered through the catheter placed in the femoral vein, and the action of the test substance to the urinary reflex was evaluated. In addition, the effects of several test substances were compared using the maximal reaction (Emax).

The target of assay [3] is T2, serotonin 1A receptor (Mus musculus, UniProt Q64264).
T2 construct: into the rectum of CD-1 (ICR) male mice (25-45 g); from tissue; host or cells: living CD-1 (ICR) male mice (in vivo)
T2 sequence (Q64264 1-421): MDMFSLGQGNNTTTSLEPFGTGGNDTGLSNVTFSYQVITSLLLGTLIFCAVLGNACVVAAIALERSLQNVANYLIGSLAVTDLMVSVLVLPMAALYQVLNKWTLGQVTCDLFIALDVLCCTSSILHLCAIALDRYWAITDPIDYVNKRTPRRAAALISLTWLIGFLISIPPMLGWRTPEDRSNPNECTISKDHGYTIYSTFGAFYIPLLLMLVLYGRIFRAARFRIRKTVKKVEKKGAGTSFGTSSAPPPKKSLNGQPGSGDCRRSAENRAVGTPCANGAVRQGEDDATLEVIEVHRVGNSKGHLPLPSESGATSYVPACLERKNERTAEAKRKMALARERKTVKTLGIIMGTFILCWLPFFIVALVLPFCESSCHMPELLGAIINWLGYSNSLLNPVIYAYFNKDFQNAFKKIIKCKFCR
The assay can be described thus: Antagonistic effect on serotonin 1A receptor agonist (8-OH-DPAT)-induced hypothermia in mouse. The assay is classed as in vivo. The settings on record: for ED50: CD-1 (ICR) male mice, inhibition of hypothermia by 8-OH-DPAT 0.5 mg/kg sc, test substance 15 minutes before agonist. The procedure, abridged: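 CD-1 (ICR) male mice, 25-45 g; rectal temperature by thermistor probe at about 2 cm depth. Test substance given 15 min before s.c. 8-OH-DPAT […]; antagonism scored as inhibition of the induced hypothermia.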

Where [4] appears, read: receptor in high affinity (G-protein binding, MgCl2 10 mM) state, read-out: High affinity IC50.
The mark [5] stands for this setting: receptor in low affinity (G-protein non-binding, Gpp(NH)p 1 mM) state, read-out: Low affinity IC50.

Structures are written as SMILES. Read-outs that look alike come from different tables or passages of the source. Where only a bound is given, the exact number is not on record here.

As a reminder, the IC50 is the concentration that gives 50% inhibition. With `COc1cc2oc(C)nc2cc1CCN1CCC(n2ccc3ccc(C(N)=O)cc32)CC1` [Compound 4, 1-{1-[2-(6-methoxy-2-methylbenzoxazol-5-yl)ethyl]piperidin-4-yl}-1H-indole-6-carboxamide], the concentration for half-maximal inhibition (IC50) in assay [1] (setting [4]) was 0.17 nM; in assay [1] (setting [5]) it was 0.15 nM. Also, the L/H ratio in assay [1] amounted to 0.9. For the same compound, in assay [2] (dose 0.03 mg/kg), the “Bladder capacity Emax” value worked out at 107%. Moreover, the ED50 in assay [3] is listed as 0.1 mg/kg, sc.

For `COc1ccc2nc(C)oc2c1CCN1CCC(n2ccc3ccc(C(N)=O)cc32)CC1` [Compound 3, 1-{1-[2-(6-methoxy-2-methylbenzoxazol-7-yl)ethyl]piperidin-4-yl}-1H-indole-6-carboxamide], the IC50 came out at 0.46 nM in assay [1] (setting [4]) and 0.34 nM in assay [1] (setting [5]). For the same compound, the L/H ratio in assay [1] is given as 0.7. Moreover, the “Bladder capacity Emax” value in assay [2] (dose 0.03 mg/kg) was determined as 62%. For the same compound, in assay [3], the ED50 was 0.18 mg/kg, sc.

On to `NC(=O)c1ccc2ccn(C3CCN(CCc4ccc(F)cc4)CC3)c2c1` [Compound A, reference compound], for which the IC50 was 0.1 nM in assay [1] (setting [4]) and 0.5 nM in assay [1] (read-out: Low affinity IC50, receptor in low affinity (G-protein non-binding, Gpp(NH)p 1 mM) state). The L/H ratio in assay [1] was found to be 3.7. In addition, the “affinity for 5-HT1A” value in assay [1] (result in words) is recorded as “has affinity”. Also, in assay [2] (dose 0.01 mg/kg), the “Bladder capacity Emax” value was −36%. Moreover, the ED50 in assay [3] was >1 mg/kg, sc. Moreover, in assay [3] (result in words), the “antagonistic effect against the receptor” value is “weak”.

Turning to `COc1ccc2c(c1CCN1CCC(n3ccc4ccc(C(N)=O)cc43)CC1)OCCO2` [Compound 32, 1-{1-[2-(6-methoxy-2,3-dihydrobenz[1,4]dioxin-5-yl)ethyl]piperidin-4-yl}-1H-indole-6-carboxamide], the IC50 in assay [1] (setting [4]) is 0.26 nM; in assay [1] (setting [5]) it was 0.25 nM. Besides, the L/H ratio in assay [1] is listed as 1. In assay [3], the ED50 is listed as 0.04 mg/kg, sc.

Take `COc1cc2c(cc1CCN1CCC(n3ccc4ccc(C(N)=O)cc43)CC1)C(=O)CC2` [Compound 26, 1-{1-[2-(6-methoxy-3-oxoindan-5-yl)ethyl]piperidin-4-yl}-1H-indole-6-carboxamide]: the IC50 in assay [1] (setting [4]) is 0.16 nM; in assay [1] (setting [5]), 0.2 nM. Also, in assay [1], the L/H ratio amounted to 1.3. Besides, the ED50 in assay [3] was 0.25 mg/kg, sc.

Regarding `COc1ccc2ncccc2c1CCN1CCC(n2ccc3ccc(C(N)=O)cc32)CC1` [Compound 30, 1-{1-[2-(6-methoxyquinolin-5-yl)ethyl]piperidin-4-yl}-1H-indole-6-carboxamide], the results for the half-maximal inhibitory concentration (IC50) in assay [1] (setting [4]) and in assay [1] (setting [5]) were 0.2 nM and 0.19 nM, respectively. For the same compound, in assay [1], the L/H ratio is 1. Further, the ED50 in assay [3] was 0.62 mg/kg, sc.

As for `CNC(=O)c1ccc2ccn(C3CCN(CCc4cc5c(cc4OC)CCN(C)C5=O)CC3)c2c1` [Compound 38, 1-{1-[2-(6-methoxy-2-methyl-1-oxo-1,2,3,4-tetrahydroisoquinolin-7-yl)ethyl]piperidin-4-yl}-N-methyl-1H-indole-6-carboxamide], the results for the 50% inhibitory concentration (IC50) in assay [1] (setting [4]) and in assay [1] (setting [5]) were 0.2 nM and 0.13 nM, respectively. Besides, in assay [1], the L/H ratio is 0.7. For the same compound, the ED50 in assay [3] is reported as 0.19 mg/kg, sc.

For `COc1cc2c(cc1CCN1CCC(n3ccc4ccc(C(N)=O)cc43)CC1)OCCO2` [Compound 31, 1-{1-[2-(7-methoxy-2,3-dihydrobenz[1,4]dioxin-6-yl)ethyl]piperidin-4-yl}-1H-indole-6-carboxamide], the IC50 in assay [1] (setting [4]) was found to be 0.16 nM; in assay [1] (setting [5]), 0.15 nM. In addition, in assay [1], the L/H ratio is reported as 0.9. Moreover, in assay [3], the ED50 is given as 0.04 mg/kg, sc.

`COc1ccc2sc(C)nc2c1CCN1CCC(n2ccc3ccc(C(N)=O)cc32)CC1` [Compound 27, 1-{1-[2-(5-methoxy-2-methylbenzothiazol-4-yl)ethyl]piperidin-4-yl}-1H-indole-6-carboxamide]: the results for the concentration for half-maximal inhibition (IC50) in assay [1] (setting [4]) and in assay [1] (setting [5]) were 0.23 nM and 0.26 nM, respectively. Further, the L/H ratio in assay [1] amounted to 1.1. The ED50 in assay [3] is listed as 0.42 mg/kg, sc.

For the compound `COc1cc2c(cc1CCN1CCC(n3ccc4ccc(C(N)=O)cc43)CC1)C(=O)CC(C)(C)O2` [Compound 24, 1-{1-[2-(7-methoxy-2,2-dimethyl-4-oxochroman-6-yl)ethyl]piperidin-4-yl}-1H-indole-6-carboxamide], the 50% inhibitory concentration (IC50) was 0.22 nM in assay [1] (setting [4]) and 0.17 nM in assay [1] (setting [5]). In addition, in assay [1], the L/H ratio amounted to 0.8. Further, the ED50 in assay [3] is listed as 0.3 mg/kg, sc.
